Test results as given in patent publication US20240400572A1, “COMPOUNDS AND METHODS FOR TREATING CANCERS THAT ARE MGMT DEFICIENT REGARDLESS OF MMR STATUS” (Yale University, priority 2021, published 2024).
Several values for one entry are separate records, joined by “and”; a condition that tells them apart may be missing. Equal values may be shown once. Read-outs that look alike come from different tables or passages of the source.

Assay: Brain distribution study
Format: in vivo, male C57BL/6 mice
Conditions: PO 20 mg/kg, male C57BL/6 mice
Procedure: Compound KL50 dosing solution: 3.39% DMSO+96.61% (10% HP-β-CD in saline) at 2 mg/mL; • 1) Weigh 17.39 mg of compound KL50 into a clean tube. • 2) Add 0.295 mL DMSO into the tube containing the compound. • 3) Vortex the tube for 3 min and sonicate it for 4 min. • 4) Add 8.400 mL 10% HP-β-CD in saline into the tube and vortex the tube for 3 min. Compound I-1 dosing solution: 3.39% DMSO+96.61% (10% HP-β-CD in saline) at 2 mg/mL; • 1) Weigh 16.86 mg Compound I-1 into a clean tube. • 2) Add 0.286 mL DMSO into the tube containing the compound. • 3) Vortex the tube for 3 min and sonicate it for 4 min. • 4) Add 8.144 mL 10% HP-β-CD in saline into the tube and vortex the tube for 3 min.
The in-vivo pharmacokinetic and brain distribution study was conducted under the following parameters. Twenty seven C57BL/6 male mice were purchased from Shanghai JiHui Laboratory Animal Co. LTD. Each mouse weighted from 16 g to 17 g. The mice were fasted overnight and fed post 4 hr sampling. Compound KL50 and Compound I-I were administered via oral gavage (PO) at a dose of 20 mg/kg (10 mL/kg). After dosing, sampling was completed at 0.083, 0.167, 0.333, 0.5, 0.75, 1, 2, 4 and 8 hr post dose, with three mice sacrificed at each time point.
Terminal bleeding for plasma and brain was completed at each time point. Approximately 110 μL blood per time point was collected into a K2EDTA tube via the facial vein. The blood sample was put on wet ice and centrifuged to obtain plasma sample (2000 g, 5 min under 4° C.) within 15 minutes. Plasma samples were acidified with 6 μL of formic acid for every 54 μL of plasma. After blood collection, a mid-line incision was made in the animal's scalp and the skin was retracted. The skull overlying the brain was removed. Then, the whole brain was collected, rinsed with cold saline, dried on filtrate paper, and weighed; and then snap frozen by placing the brain into dry-ice. Plasma samples were stored at approximately −70° C. until analysis. Brain tissue was homogenized with 3 volumes (v/w) of PBS (1% FA) and then analyzed with LC-MS/MS. The concentration of study drug was corrected with a dilution factor of four as following: Brain concentration=brain homogenate conc.×4, assuming 1 g wet brain tissue equals to 1 mL

Structure (SMILES): NC(=O)c1ncn2c(=O)n(CCF)nnc12 [KL-50, 3-(2-fluoroethyl)-4-oxo-3H,4H-imidazo[4,3-d][1,2,3,5]tetrazine-8-carboxamide]
- Brain Concentration/Plasma Concentration, Individuals (0.083 hr, 20 mg/kg): 0.0770 and 0.0693
- brain Concentration, Individuals (0.083 hr, 20 mg/kg): 1970 ng/g and 1940 ng/g
- Brain Concentration/Plasma Concentration, Individuals (0.167 hr, 20 mg/kg): 0.123 and 0.156
- brain Concentration, Individuals (0.167 hr, 20 mg/kg): 2810 ng/g and 2820 ng/g
- Brain Concentration/Plasma Concentration, Individuals (0.333 hr, 20 mg/kg): 0.206 and 0.213
- brain Concentration, Individuals (0.333 hr, 20 mg/kg): 2980 ng/g and 4450 ng/g
- Brain Concentration/Plasma Concentration, Individuals (0.5 hr, 20 mg/kg): 0.260 and 0.250
- brain Concentration, Individuals (0.5 hr, 20 mg/kg): 3230 ng/g and 3830 ng/g
- Brain Concentration/Plasma Concentration, Individuals (0.75 hr, 20 mg/kg): 0.278 and 0.331
- brain Concentration, Individuals (0.75 hr, 20 mg/kg): 3060 ng/g and 3380 ng/g
- Brain Concentration/Plasma Concentration, Individuals (1 hr, 20 mg/kg): 0.345 and 0.266
- brain Concentration, Individuals (1 hr, 20 mg/kg): 2530 ng/g and 3270 ng/g
- Brain Concentration/Plasma Concentration, Individuals (2 hr, 20 mg/kg): 0.347 and 0.335
- brain Concentration, Individuals (2 hr, 20 mg/kg): 953 ng/g and 1530 ng/g
- Brain Concentration/Plasma Concentration, Individuals (4 hr, 20 mg/kg): 0.269 and 0.250
- brain Concentration, Individuals (4 hr, 20 mg/kg): 184 ng/g and 427 ng/g and 199 ng/g
- Brain Concentration/Plasma Concentration, Individuals (8 hr, 20 mg/kg): 0.175 and 0.244
- brain Concentration, Individuals (8 hr, 20 mg/kg): 85.3 ng/g and 18.2 ng/g and 45.2 ng/g
- AUCINF (brain): 7213 ng·h/g
- AUClast (brain): 7128 ng·h/g
- concentration at 0.083 hr (male, C57BL/6, mouse, brain, po, 20 mg/kg, 0.083 hr, N=3, read-out: brain Concentration, Mean): 1820 ng/g
- concentration at 0.083 hr (male, C57BL/6, mouse, brain, po, 20 mg/kg, 0.083 hr, read-out: brain Concentration, Individuals): 1540 ng/g
- concentration at 0.167 hr (male, C57BL/6, mouse, brain, po, 20 mg/kg, 0.167 hr, N=3, read-out: brain Concentration, Mean): 2940 ng/g
- concentration at 0.167 hr (male, C57BL/6, mouse, brain, po, 20 mg/kg, 0.167 hr, read-out: brain Concentration, Individuals): 3180 ng/g
- concentration at 0.333 hr (male, C57BL/6, mouse, brain, po, 20 mg/kg, 0.333 hr, N=3, read-out: brain Concentration, Mean): 3690 ng/g
- concentration at 0.333 hr (male, C57BL/6, mouse, brain, po, 20 mg/kg, 0.333 hr, read-out: brain Concentration, Individuals): 3630 ng/g
- concentration at 0.5 hr (male, C57BL/6, mouse, brain, po, 20 mg/kg, 0.5 hr, N=3, read-out: brain Concentration, Mean): 3600 ng/g
- concentration at 0.5 hr (male, C57BL/6, mouse, brain, po, 20 mg/kg, 0.5 hr, read-out: brain Concentration, Individuals): 3730 ng/g
- concentration at 0.75 hr (male, C57BL/6, mouse, brain, po, 20 mg/kg, 0.75 hr, N=3, read-out: brain Concentration, Mean): 3250 ng/g
- concentration at 0.75 hr (male, C57BL/6, mouse, brain, po, 20 mg/kg, 0.75 hr, read-out: brain Concentration, Individuals): 3300 ng/g
- concentration at 1 hr (male, C57BL/6, mouse, brain, po, 20 mg/kg, 1 hr, N=3, read-out: brain Concentration, Mean): 2910 ng/g
- concentration at 1 hr (male, C57BL/6, mouse, brain, po, 20 mg/kg, 1 hr, read-out: brain Concentration, Individuals): 2920 ng/g
- concentration at 2 hr (male, C57BL/6, mouse, brain, po, 20 mg/kg, 2 hr, N=3, read-out: brain Concentration, Mean): 1140 ng/g
- concentration at 2 hr (male, C57BL/6, mouse, brain, po, 20 mg/kg, 2 hr, read-out: brain Concentration, Individuals): 934 ng/g
- concentration at 4 hr (male, C57BL/6, mouse, brain, po, 20 mg/kg, 4 hr, N=3): 270 ng/g
- concentration at 8 hr (male, C57BL/6, mouse, brain, po, 20 mg/kg, 8 hr, N=3): 49.6 ng/g
- Kp (male, C57BL/6, mouse, brain/plasma, po, 20 mg/kg, AUCbrain/AUCplasma, heading: AUCbrain/AUCplasma): 25.1%
- Kp at 0.083 hr (male, C57BL/6, mouse, brain/plasma, po, 20 mg/kg, 0.083 hr, N=3, read-out: Brain Concentration/Plasma Concentration, Mean): 0.0718
- Kp at 0.083 hr (male, C57BL/6, mouse, brain/plasma, po, 20 mg/kg, 0.083 hr, read-out: Brain Concentration/Plasma Concentration, Individuals): 0.0691
- Kp at 0.167 hr (male, C57BL/6, mouse, brain/plasma, po, 20 mg/kg, 0.167 hr, N=3, read-out: Brain Concentration/Plasma Concentration, Mean): 0.136
- Kp at 0.167 hr (male, C57BL/6, mouse, brain/plasma, po, 20 mg/kg, 0.167 hr, read-out: Brain Concentration/Plasma Concentration, Individuals): 0.13
- Kp at 0.333 hr (male, C57BL/6, mouse, brain/plasma, po, 20 mg/kg, 0.333 hr, N=3, read-out: Brain Concentration/Plasma Concentration, Mean): 0.203
- Kp at 0.333 hr (male, C57BL/6, mouse, brain/plasma, po, 20 mg/kg, 0.333 hr, read-out: Brain Concentration/Plasma Concentration, Individuals): 0.191
- Kp at 0.5 hr (male, C57BL/6, mouse, brain/plasma, po, 20 mg/kg, 0.5 hr, N=3, read-out: Brain Concentration/Plasma Concentration, Mean): 0.257
- Kp at 0.5 hr (male, C57BL/6, mouse, brain/plasma, po, 20 mg/kg, 0.5 hr, read-out: Brain Concentration/Plasma Concentration, Individuals): 0.259
- Kp at 0.75 hr (male, C57BL/6, mouse, brain/plasma, po, 20 mg/kg, 0.75 hr, N=3, read-out: Brain Concentration/Plasma Concentration, Mean): 0.318
- Kp at 0.75 hr (male, C57BL/6, mouse, brain/plasma, po, 20 mg/kg, 0.75 hr, read-out: Brain Concentration/Plasma Concentration, Individuals): 0.344
- Kp at 1 hr (male, C57BL/6, mouse, brain/plasma, po, 20 mg/kg, 1 hr, N=3, read-out: Brain Concentration/Plasma Concentration, Mean): 0.296
- Kp at 1 hr (male, C57BL/6, mouse, brain/plasma, po, 20 mg/kg, 1 hr, read-out: Brain Concentration/Plasma Concentration, Individuals): 0.278
- Kp at 2 hr (male, C57BL/6, mouse, brain/plasma, po, 20 mg/kg, 2 hr, N=3, read-out: Brain Concentration/Plasma Concentration, Mean): 0.348
- Kp at 2 hr (male, C57BL/6, mouse, brain/plasma, po, 20 mg/kg, 2 hr, read-out: Brain Concentration/Plasma Concentration, Individuals): 0.362
- Kp at 4 hr (male, C57BL/6, mouse, brain/plasma, po, 20 mg/kg, 4 hr, N=3, read-out: Brain Concentration/Plasma Concentration, Mean): 0.231
- Kp at 4 hr (male, C57BL/6, mouse, brain/plasma, po, 20 mg/kg, 4 hr, read-out: Brain Concentration/Plasma Concentration, Individuals): 0.174
- Kp at 8 hr (male, C57BL/6, mouse, brain/plasma, po, 20 mg/kg, 8 hr, N=3, read-out: Brain Concentration/Plasma Concentration, Mean): 0.233
- Kp at 8 hr (male, C57BL/6, mouse, brain/plasma, po, 20 mg/kg, 8 hr, read-out: Brain Concentration/Plasma Concentration, Individuals): 0.28
- Cmax (mouse, brain): 3690 ng/g
- MRT inf (mouse, brain): 1.57 h
- Tmax (mouse, brain): 0.333 h
- half-life (mouse, brain): 1.18 h
